Source: patent publication US20240246944A1, “AMINO HETEROARYL COMPOUNDS AND COMPOSITIONS” (Anrui Biomedical Technology (Guangzhou) Co., Ltd., priority 2021, published 2024)
Like-named read-outs stand apart in the source and are kept apart here.

What was measured:
IFNγ reporter (JAK1/2) = assay: IFN-γ reporter assay in HEK-Dual IFN-γ cells; assay type: cell-based
Experimental: (§1) IFN-γ reporter assay. Seed HEK-Dual™ IFN-γ Cells (1-3×10^4 cells/well/[…]) to 96 cell plate with DMEM (10% HFBS+1% PS) and incubate overnight at 5% CO2&37° C. Diluent compounds in DMSO. Three times dilution and 10 doses. Add compounds to cell plate and incubate 1 h at 5% CO2&37° C. Add IFN-γ (0.1 ng/mL) to cell plate and incubate overnight at 5% CO2&37° C. Prepare QUANTI-Blue Solution: add 100 μl of QB reagent and 100 μl of QB buffer to 9800 μl sterile water. Use cell supernatant and QUANTI-Blue solution in proportion of 1 to 10, incubate 2 h at 37° C. Read OD630.

IL-2 reporter (JAK1/3) = assay: IL-2 reporter assay in HEK-Blue IL-2 cells; assay type: cell-based
Experimental: as §1, with “IL-2” for “IFN-γ”, “HEK-Blue™ IL-2” for “HEK-Dual™ IFN-γ”, “IL-2 (1” for “IFN-γ (0.1”

[1] = tested on: IL-23 reporter (JAK2/Tyk2); assay: IL-23 induced STAT3 QUANTI-Blue reporter assay in HEK-Blue IL-23 cells; assay type: cell-based
Experimental: Biological Example 2. IL-23 Induced STAT3 QUANTI-Blue in HEK-Blue™ IL-23 Cells
HEK-Blue™ IL-23 cells were prepared at 2×10^5 cells/ml for adding 5000 cell/well and incubate plates containing compounds+cells for 1 hour at 37° C. Prepare IL-23 (treatment at final conc. 0.1 ng/mL) during incubation and add 2 ul per well of prepared cytokine in media to appropriate wells. The plate was incubated for overnight at 37° C. The next day, QUANTI-Blue solution was prepared. 18 ul of QUANTI-Blue solution per well was added into a new 384-well clear flat bottom plate, followed by addition of 2 ul of induced and treated HEK-Blue cell supernatant from overnight plate. The plate was incubated at 37° C. for 2 hours and SEAP levels determined.

Dog PK = assay type: in vivo, Beagle dogs; conditions: for AUC(0-t) / Cmax: beagle, plasma
Experimental: Biological Example 7. Dog PK
Selected exemplified compounds of the present disclosure were also tested in dog for pharmacokinetic studies. The Beagle dogs were fasted overnight with free access to drinking water prior to treatment. All the dosing solutions were freshly prepared prior to dose administration. In intravenous administration animal group were given a single dose of compound at 1 mg·kg-1. Blood for plasma samples were collected at pre-dose, 5, 15, 30 min, 1, 2, 4, 8, 12 and 24 h through vein into tubes anticoagulated with EDTA-K2. In intragastric administration animal group were given a single dose of compound at 5 mg·kg-1. Blood for plasma samples (˜0.5 mL) were collected at pre-dose, 15, 30 min, 1, 2, 4, 8, 12 and 24 h post-dose through vein into tubes anticoagulated with EDTA-K2. Blood samples were inverted several times and were held on wet ice pending centrifugation. The samples were centrifuged (within 20 minutes of collection) in a centrifuge set at 4° C. for 10 minutes at 1500-1600 g to obtain plasma. Plasma samples were transferred and frozen immediately after separation and stored in a freezer set at below −70° C. prior to analysis.

[2] = target: N-terminal His-tagged TYK2 pseudokinase domain (Homo sapiens (Human), UniProt P29597); assay: TYK2 JH2 domain SPA binding assay; conditions: displacement of H3 probe
Chain of N-terminal His-tagged TYK2 pseudokinase domain (P29597 589-875): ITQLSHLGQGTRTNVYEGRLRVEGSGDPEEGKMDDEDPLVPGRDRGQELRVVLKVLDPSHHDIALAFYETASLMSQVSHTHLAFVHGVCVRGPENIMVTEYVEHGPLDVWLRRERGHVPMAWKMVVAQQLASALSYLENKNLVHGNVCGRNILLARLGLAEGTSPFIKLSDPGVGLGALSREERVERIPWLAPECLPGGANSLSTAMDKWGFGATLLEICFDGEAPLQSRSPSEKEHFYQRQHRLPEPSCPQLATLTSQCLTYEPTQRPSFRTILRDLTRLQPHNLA
Experimental: TYK2 JH2 Domain Binding Assay
After incubating at room temperature for 30 min, the inhibition was calculated by the displacement of [3H] 3 binding as determined by scintillation counting.

[3] = tested on: IFNα/β reporter (JAK1/Tyk2); assay: IFN-alpha/beta reporter assay in HEK-Blue IFN-a/b cells; assay type: cell-based; conditions: cellular assay
Experimental: as §1, with “IFN-alpha/beta” for “IFN-γ”, “HEK-Blue™ IFN-a/b cells” for “HEK-Dual™ IFN-γ Cells”, “IFN-alpha/beta (5 U/ml)” for “IFN-γ (0.1 ng/mL)”

[4] = tested on: IL-12/IL-18 induced IFN-gamma production; assay: In vivo inhibition of IL-12/IL-18 induced IFN-gamma; conditions: mice, oral; for inhibition of IFNγ production (reduction compared to vehicle treated group): 10 mpk
Experimental: Biological Example 5. In Vivo Inhibition of IL-12/IL-18 Induced IFN-Gamma
Selected exemplified compounds of the present disclosure (compound Examples 4 and 5) and BMS986165 were dosed orally to female C57BL/6J mice (Charles River). One hour later, 0.05 μg of recombinant rat IL-12 was administered IV. Another hour later following IL-12 administration, 1 μg of recombinant rat IL-18 was administered IV. Three hours later, blood was collected and serum were obtained by centrifugation for analysis of IFNγ by ELISA.

Jak1 JH2 = Jak1 JH2 (Homo sapiens (Human), UniProt P23458); assay: Jak1 JH2 HTRF binding; conditions: biochemical assay
Chain of Jak1 JH2 (P23458 583-855): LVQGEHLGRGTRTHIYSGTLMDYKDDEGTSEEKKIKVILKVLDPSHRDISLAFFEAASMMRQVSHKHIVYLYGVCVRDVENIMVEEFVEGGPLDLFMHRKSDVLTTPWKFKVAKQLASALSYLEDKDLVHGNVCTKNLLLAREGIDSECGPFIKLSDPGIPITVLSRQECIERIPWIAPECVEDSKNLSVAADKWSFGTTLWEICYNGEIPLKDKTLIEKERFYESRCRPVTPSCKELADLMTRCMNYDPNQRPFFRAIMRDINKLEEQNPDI

IL-23-induced psoriasis = assay: In vivo mouse psoriasis model induced by human IL-23; conditions: mice, 7.5, 15 and 30 mg/kg BID oral gavage
Experimental: Biological Example 6. In Vivo Mouse Psoriasis Model Selected exemplified compounds of the present disclosure were also tested in a mouse psoriasis model induced by human IL-23. Psoriasis was induced in 6-8-week-old C57BL/6J female mice (Charles River) by intradermal injection of recombinant human IL-23 into the left ear. IL-23 injections were administered every other day from day 1 through day 9 of the study. Selected compounds at 7.5, 15, and 30 mg/kg, with 15 mg/kg BMS986165 as positive control were dosed BID by oral gavage, with the first dose given the evening before first IL-23 injection. Ear thickness was measured every other day, prior to the ear injection.

Mouse PK = assay type: in vivo
[5] = cellular assay, read-out: IFNγ reporter assay (JAK1/2) IC50
[6] = HEK-Blue, cellular assay, read-out: IL-2 reporter assay (JAK1/3) IC50
[7] = HEK-Blue IL-23, cellular assay, Table 3 and text, read-out: IL-23 reporter assay (JAK2/Tyk2) IC50
[8] = HEK-Blue IL-23 cells, Table 2, read-out: IL23 reporter assay_IC50
[9] = intravenous, 1 mg/kg single dose, read-out: AUC0-t (IV)
[10] = po, intragastric, 5 mg/kg single dose
[11] = po, intragastric, 5 mg/kg single dose, read-out: AUC0-t (PO)
[12] = HEK-Blue, read-out: IC50 in IL-2 reporter assay (JAK1/3)
[13] = HEK-Blue IL-23, HEK-Blue IL-23 cells, Table 2, read-out: IL23 reporter assay_IC50
[14] = cellular assay, Table 3 and text, read-out: IL-23 reporter assay (JAK2/Tyk2) IC50

Structure (SMILES): [2H]C([2H])([2H])NC(=O)c1nnc(NC(=O)C2CC2)cc1Nc1cccc(-c2ncn(C)n2)c1OC [BMS-986165, reference compound]
- IC50 (IFNγ reporter (JAK1/2); [5]): 1090 nM
- IC50 (IL-2 reporter (JAK1/3); [6]): 221 nM
- IC50 (IL-2 reporter (JAK1/3); cellular assay, read-out: IL-2 reporter assay (JAK1/3) IC50): 221 nM
- IC50 [1, 7]: 3.5 nM
- IC50 [1, 8]: 3.76 nM
- AUC(0-t) (Dog PK; [9]): 3.8 µM·h
- Cmax (Dog PK; [10]): 2.7 µM
- AUC(0-t) (Dog PK; [11]): 22.3 µM·h

Structure (SMILES): [2H]C([2H])([2H])NC(=O)c1cnc(NC(=O)C2CC2)cc1Nc1cccc(C(=O)NCc2ccc(NC(=O)C=C)cn2)c1OC [Example 1, 4-((3-(((5-acrylamidopyridin-2-yl)methyl)carbamoyl)-2-methoxyphenyl)amino)-6-(cyclopropanecarboxamido)-N-(methyl-d3)nicotinamide]
- IC50 [2]: 27 nM
- IC50 [1, 8]: 318 nM

Structure (SMILES): [2H]C([2H])([2H])NC(=O)c1cnc(NC(=O)C2CC2)cc1Nc1cccc(C(=O)NCc2ccc(NC(=O)CCl)cn2)c1OC [Example 2, 4-((3-(((5-(2-chloroacetamido)pyridin-2-yl)methyl)carbamoyl)-2-methoxyphenyl)amino)-6-(cyclopropanecarboxamido)-N-(methyl-d3)nicotinamide]
- IC50 [2]: 5.56 nM
- IC50 [1, 8]: 15.7 nM

Structure (SMILES): [2H]C([2H])([2H])NC(=O)c1cnc(NC(=O)C2CC2)cc1Nc1cccc(-c2cc(=O)n(C3CC3)cn2)c1OC [Example 3, 6-(cyclopropanecarboxamido)-4-((3-(1-cyclopropyl-6-oxo-1,6-dihydropyrimidin-4-yl)-2-methoxyphenyl)amino)-N-(methyl-d3)nicotinamide]
- IC50 [2]: 16.1 nM
- IC50 [1, 8]: 6.5 nM

Structure (SMILES): [2H]C([2H])([2H])NC(=O)c1nnc(NC(=O)C2CC2)cc1Nc1cccc(-c2cc(=O)n(C3CC3)cn2)c1OC [Example 4, 6-(cyclopropanecarboxamido)-4-((3-(1-cyclopropyl-6-oxo-1,6-dihydropyrimidin-4-yl)-2-methoxyphenyl)amino)-N-(methyl-d3)pyridazine-3-carboxamide]
- IC50 ([3]; HEK-Blue): ~4 nM
- IC50 [3]: 3.7 nM
- IC50 (IFNγ reporter (JAK1/2); [5]): > 10000 nM
- IC50 (IFNγ reporter (JAK1/2); read-out: IC50 in IFN-gamma reporter assay (JAK1/2)): > 10000 nM
- IC50 (IL-2 reporter (JAK1/3); [6]): 696 nM
- IC50 (IL-2 reporter (JAK1/3); [12]): > 10000 nM
- inhibition of IFNγ production ([4]; 2.5 mpk): 52.7%
- inhibition of IFNγ production ([4]; 5 mpk): 76.0%
- inhibition of IFNγ production ([4]; 7.5 mpk): 88.6%
- inhibition of IFNγ production (reduction compared to vehicle treated group) [4]: 93.3%
- IC50 (Jak1 JH2): 4.99 nM
- IC50 [1, 13]: 18 nM
- IC50 [1, 7]: ~18 nM
- IC50 [1, 14]: 18.3 nM
- protection from IL-23-induced psoriasis (ear thickness), result in words (IL-23-induced psoriasis): dose-dependently protect mice from IL-23-induced psoriasis

Structure (SMILES): [2H]C([2H])([2H])NC(=O)c1nnc(NC(=O)C2CC2)cc1Nc1cccc(-n2cnc(C)n2)c1OC [Example 5, 6-(cyclopropanecarboxamido)-4-((2-methoxy-3-(3-methyl-1H-1,2,4-triazol-1-yl)phenyl)amino)-N-(methyl-d3)pyridazine-3-carboxamide]
- IC50 ([3]; HEK-Blue): ~5 nM
- IC50 [3]: 4.6 nM
- IC50 (IFNγ reporter (JAK1/2); [5]): > 10000 nM
- IC50 (IL-2 reporter (JAK1/3); [6]): > 10000 nM
- IC50 (IL-2 reporter (JAK1/3); [12]): > 10000 nM
- inhibition of IFNγ production (reduction compared to vehicle treated group) [4]: greater than 93%
- inhibition of IL-12/IL-18 induced IFNγ production, result in words ([4]; positive control BMS986165): efficacy similar to the positive control tested
- IC50 (Jak1 JH2): 13.2 nM
- IC50 [1, 13]: 6 nM
- IC50 [1, 7]: ~6 nM
- IC50 [1, 14]: 6.1 nM
- protection from IL-23-induced psoriasis (ear thickness), result in words (IL-23-induced psoriasis): dose-dependently protect mice from IL-23-induced psoriasis
- mouse PK profile compared to BMS986165, in words (Mouse PK): about the same with BMS986165
- pharmacokinetic profile in dog compared to BMS986165, in words (Dog PK): superior pharmacokinetic profile in dog compared to BMS986165
- AUC(0-t) (Dog PK; [9]): 6.4 µM·h
- Cmax (Dog PK; [10]): 7.87 µM
- AUC(0-t) (Dog PK; [11]): 47.5 µM·h

Structure (SMILES): [2H]C([2H])([2H])NC(=O)c1cnc(NC(=O)C2CC2)cc1Nc1cc(F)cc(-c2cc(=O)n(C3CC3)cn2)c1OC [Example 6]
- IC50 [2]: 30 nM
- IC50 [1, 8]: 18 nM

Structure (SMILES): [2H]C([2H])([2H])NC(=O)c1nnc(NC(=O)C2CC2)cc1Nc1cc(F)cc(C2=NC3(CC3)C(=O)N2)c1OC [Example 9]
- IC50 [1, 8]: 318 nM

Structure (SMILES): [2H]C([2H])([2H])NC(=O)c1nnc(NC(=O)C2CC2)cc1Nc1cccc(C2=NC3(CC3)C(=O)N2)c1OC [Example 10]
- IC50 [1, 8]: 74 nM

Structure (SMILES): [2H]C([2H])([2H])NC(=O)c1cnc(NC(=O)C2CC2)cc1Nc1cccc(C2=NC3(CC3)C(=O)N2)c1OC [Example 11]
- IC50 [1, 8]: 111 nM

Structure (SMILES): [2H]C([2H])([2H])NC(=O)c1nnc(NC(=O)C2CC2)cc1Nc1cc(F)cc(-n2cnc(C)n2)c1OC [Example 12]
- IC50 [1, 8]: 15 nM

Structure (SMILES): [2H]C([2H])([2H])NC(=O)c1nnc(NC(=O)C2CC2)cc1Nc1cccc(-n2ncc(C)n2)c1OC [Example 13]
- IC50 [1, 8]: 38 nM

Structure (SMILES): [2H]C([2H])([2H])NC(=O)c1nnc(NC(=O)C2CC2)cc1Nc1cc(F)cc(-n2ncc(C)n2)c1OC [Example 14]
- IC50 [1, 8]: 71 nM

Structure (SMILES): [2H]C([2H])([2H])NC(=O)c1nnc(NC(=O)C2CC2)cc1Nc1cccc(-c2nc(=O)n(C)[nH]2)c1OC [Example 15]
- IC50 [1, 8]: 25 nM
